Values joined by “and” are separate entries in the source; they are usually repeats but may differ in a detail not shown here. Equal values may be shown once. Square brackets hold non-standard residues; d marks the D form. Ends that are not written are not given here. Peptide text beside a SMILES is read from it. pGlu = O=C1CC[C@@H](C(=O)O)N1
What was measured:
[1] = test system: monoclonal antibody 2A11; test: Indirect radioimmunoassay: 2A11 cross reactivity with solid phase synthetic peptides; type: binding, mouse; details: for % 125I-PROTEIN A BOUND (% cross reactivity with 2A11): cpm minus BSA background relative to bombesin; for % 125I-PROTEIN A BOUND (% cross reactivity with 2A11) / CPM 125I-PROTEIN A BOUND: peptides solid phased at 500 ng/well; for CPM 125I-PROTEIN A BOUND: 2A11 10 μg/ml, detection with rabbit anti mouse IgG and 125I-protein A; for 2A11 binding to the solid phase peptide (in words): indirect RIA / titration of 2A11
Description: Peptides (all purchased from Peninsula Laboratories) were adsorbed to 96 well polyvinyl chloride microtiter plates (Dynatech) by adding 0.05 ml of a 10 μg/ml peptide in phosphate buffered saline (PBS) for 1 hr., washing in PBS, then blocking with a 1% bovine serum albumin (BSA) PBS solution. Purified 2A11 from ascites fluid (10 μg/ml) was added, incubated, washed three times, then protein A affinity purified rabbit anti-mouse IgG (Cappel Laboratories) 1.6 μg/ml) was added, incubated, washed three times, then ^125 I-protein A (Pharmacia, labeled by chloramine T method to 40-50 μCi/μg) 40,000 cpm/well was added, incubated, washed 8× and then the wells cut out and counted in a Beckman gamma counter. All incubations were for 1 hr. at room temperature in PBS with 1% BSA in 0.025 ml volumes.
Percent cross reactivity was determined as follows:
% cross reactivity--cpm^125 I-protein A bound on peptide target minus cpm bound on BSA target divided by crop bound by bombesin minus BSA background times 100. Typically, the bombesin target caused 2A11 binding sufficient to bind about 32,776 cpm of ^125 I-protein A while the BSA background bound about 30 cpm.

[2] = test system: solid phase 2A11; test: Quantitative inhibition assay: peptide inhibition of 125I-Tyr4-BN binding to solid phase 2A11; parameters: species or system mouse; details: for PERCENT INHIBITION of 125I-Tyr4-BN binding to solid phase 2A11: peptides at 1 nM, mean ± SD of 3 determinations
Description: Antibodies 2A11 or MOPC 21 were adsorbed to 96 well polyvinylchloride plates at 500 ng/well followed by saturation with 1% BSA-PBS. Unlabeled bombesin was added to triplicate wells covering a range from 1-1,000 pg and incubated for 1 hr. at room temperature. Without removing the unlabeled bombesin samples, about 12,000 cpm of ^125 I-Tyr^4 -bombesin was added to each well and incubated overnight at 4° C., washed 8× and counted. All additions were in 1% BSA-PBS in a 25 μl volume, and the washes were with 1% BSA-PBS 0.2 ml/well.

[3] = test system: 2A11 staining of BLP in paraffin embedded tissue; test: Immunohistochemical staining with 2A11: pre-absorption specificity test; details: peptide 100 μg/ml; 2A11 at 10 μg/ml
Excerpt: Antibody 2A11 was also used for immunohistochemical localization of BLP in paraffin embedded tissue. Using rabbit antisera it has been reported that chick proventriculus and human fetal bronchioles are rich in BN-like immunoreactivity. Use was, therefore, made of immunohistochemical staining technique of Hsu, et al. J. Histochem. Cytochem. 29, 557-5--1981, in combination with 2A11 for the light microscopic detection of BLP. Bombesinergic cells were found in chick proventriculus, human fetal bronchioles and a human SCLC. Immune staining was performed using 2A11 at 10 μg/ml.

[4] = test system: NCI-N592; test: Agarose clonogenic assay in serum-free HITES medium, NCI-N592; type: cell-based, human; details: 50 nM exogenous BN; SCLC lines NCI-N417D and NCI-N592
Description: Because of its poor colony forming efficiency in serum-free medium, NCI-N417 culture plates were supplemented with 0.1% BSA to enhance cell growth, NCI-N592 cells were seeded at 5×10^4 per plate while NCI-N417 cells were plated at 1×10^4. Plates were pre-screened to verify single cell distribution of test cells and assessed 21 days later for colony formation. Cell aggregates of greater than 50 cells were scored positive as definitive colony growth.

| Compound | % 125I-PROTEIN A BOUND (% cross reactivity with 2A11) [1] | CPM 125I-PROTEIN A BOUND [1] | PERCENT INHIBITION of 125I-Tyr4-BN binding to solid phase 2A11 [2] | other results |
| --- | --- | --- | --- | --- |
| CC[C@H](C)[C@H](NC(=O)[C@H](Cc1ccccc1)NC(=O)[C@H](C)NC(=O)[C@H](CC(=O)O)NC(=O)[C@H](CCCCN)NC(=O)[C@H](CO)NC(=O)[C@@H]1CCCN1C(=O)[C@@H]1CCC(=O)N1)C(=O)NCC(=O)N[C@@H](CC(C)C)C(=O)N[C@@H](CCSC)C(N)=O [ELEDOISIN, eledoisin] ([pGlu]PSKDAFIGLM-NH2) | < 0.02% | 24 CPM | – | % 125I-PROTEIN A BOUND (% cross reactivity with 2A11) ([1]; listed as eledoisin): less than 0.3% |
| CSCC[C@H](NC(=O)[C@H](Cc1ccccc1)NC(=O)[C@H](Cc1c[nH]cn1)NC(=O)CNC(=O)[C@@H](NC(=O)[C@H](C)NC(=O)[C@H](Cc1c[nH]c2ccccc12)NC(=O)[C@H](CCC(N)=O)NC(=O)[C@@H]1CCC(=O)N1)C(C)C)C(N)=O [Litorin] | – | – | 56.5 ± 6.2% | – |
| CSCC[C@H](NC(=O)[C@H](Cc1ccccc1)NC(=O)[C@H](Cc1c[nH]cn1)NC(=O)CNC(=O)[C@@H](NC(=O)[C@H](C)NC(=O)[C@H](Cc1c[nH]c2ccccc12)NC(=O)[C@H](CCC(N)=O)NC(=O)[C@@H]1CCCN1C(=O)[C@@H](NC(=O)[C@@H]1CCC(=O)N1)C(C)C)C(C)C)C(N)=O [Ranatensin] ([pGlu]VPQWAVGHFM-NH2) | – | – | 54.0 ± 8.4% | – |
| CSCC[C@H](NC(=O)[C@H](CC(C)C)NC(=O)CNC(=O)[C@H](Cc1ccccc1)NC(=O)[C@H](Cc1ccccc1)NC(=O)[C@H](CCC(N)=O)NC(=O)[C@H](CCC(N)=O)NC(=O)[C@@H]1CCCN1C(=O)[C@H](CCCCN)NC(=O)[C@@H]1CCCN1C(=O)[C@@H](N)CCCNC(=N)N)C(N)=O [SUBSTANCE P, substance P] | < 0.02% | 31 CPM | – | % 125I-PROTEIN A BOUND (% cross reactivity with 2A11) ([1]; listed as substance P): less than 0.3%; 2A11 binding to the solid phase peptide (in words) [1]: insignificant 2A11 binding; inhibition of 125I-Tyr4-BN/2A11 binding (in words) ([2]; same concentration range as BN standard curve): incapable of inhibiting |
| Alytesin | – | – | 99.0 ± 5.1% | – |
| GRP^14-27: fragment 14-27 of gastrin releasing peptide (MYPRGNHWAVGHLM; ends and bridges not checked; UniProt P07492 37-50, looked up, fragment) | 102% | 33,379 CPM | 104.3 ± 7.7% | – |
| GRP^20-27: C-terminal octapeptide fragment 20-27 of gastrin releasing peptide | – | – | – | PERCENT INHIBITION of 125I-Tyr4-BN binding to solid phase 2A11 ([2]; 0.001 µM): 98.5 ± 2.4% and 98.5% |
| KASSININ | < 0.02% | 37 CPM | – | % 125I-PROTEIN A BOUND (% cross reactivity with 2A11) ([1]; listed as kassinin): less than 0.3% |
| PHYSALAEMIN | < 0.02% | 28 CPM | – | % 125I-PROTEIN A BOUND (% cross reactivity with 2A11) ([1]; listed as physalaemin): less than 0.3% |
| bombesin | 100% | – | 100.0 ± 4.7% | effect of pre-absorption of the antibody solution on 2A11 staining (in words) [3]: staining inhibited; 2A11 binding to the solid phase peptide (in words) [1]: maximal binding; CPM 125I-PROTEIN A BOUND ([1]; listed as BOMBESIN): 32,776 CPM; CPM 125I-PROTEIN A BOUND ([1]; listed as bombesin): about 32,776 CPM; effect of exogenous BN on 2A11 growth inhibition (in words) [4]: nullification of the 2A11 effect |
| gastrin-releasing peptide [GASTRIN RELEASING PEPTIDE (GRP)] | 102% | 33,405 CPM | 101.0 ± 3.4% | 2A11 binding to the solid phase peptide (in words) [1]: maximal binding |
| neurotensin | – | – | – | effect of pre-absorption of the antibody solution on 2A11 staining (in words) [3]: no inhibition of staining |

From patent publication US5460801A, “Inhibition of small cell lung cancer cell growth in vivo using monoclonal antibody” (The United States of America as represented by the …, priority 1993, dated 1995)
